In ChEMBL document CHEMBL1201862, “PubChem BioAssay data set” (2004):
Activity calls are given as the source filed them. No stated cut-off is given here; in the data, actives have a measured IC50 and inactives only a lower limit.

Target: Envelope glycoprotein gp160 (Human immunodeficiency virus 1, UniProt Q6QLK5)
Assay: cell-free HIV fusion peptide-binding blockers – biochemical, uHTS, fluorescence dequenching, […] (AID 1986)

Sequence of Envelope glycoprotein gp160 (Q6QLK5 whole entry, the tested form may be a part): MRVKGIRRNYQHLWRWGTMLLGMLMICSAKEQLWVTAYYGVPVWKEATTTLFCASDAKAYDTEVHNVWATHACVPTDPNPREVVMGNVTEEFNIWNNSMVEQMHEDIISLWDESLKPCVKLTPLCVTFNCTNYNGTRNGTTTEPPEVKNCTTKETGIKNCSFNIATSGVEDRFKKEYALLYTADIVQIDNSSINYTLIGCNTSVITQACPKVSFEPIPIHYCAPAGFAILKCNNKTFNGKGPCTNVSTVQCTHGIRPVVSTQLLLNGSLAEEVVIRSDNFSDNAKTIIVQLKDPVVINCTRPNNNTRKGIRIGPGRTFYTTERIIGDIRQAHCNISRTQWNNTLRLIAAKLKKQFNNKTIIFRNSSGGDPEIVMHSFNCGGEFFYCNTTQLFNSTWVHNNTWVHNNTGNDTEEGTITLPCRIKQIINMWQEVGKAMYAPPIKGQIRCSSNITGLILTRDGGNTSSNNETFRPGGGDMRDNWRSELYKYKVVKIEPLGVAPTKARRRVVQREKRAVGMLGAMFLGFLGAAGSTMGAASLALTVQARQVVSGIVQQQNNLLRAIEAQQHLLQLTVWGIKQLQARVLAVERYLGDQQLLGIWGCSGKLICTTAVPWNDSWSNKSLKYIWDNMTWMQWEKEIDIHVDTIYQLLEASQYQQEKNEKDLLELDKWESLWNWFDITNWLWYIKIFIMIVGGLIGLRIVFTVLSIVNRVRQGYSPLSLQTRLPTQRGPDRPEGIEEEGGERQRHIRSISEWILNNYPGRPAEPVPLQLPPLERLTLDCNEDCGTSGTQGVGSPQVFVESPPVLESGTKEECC

CCCCN1C(=O)/C(=C/C=C/c2ccco2)C(=O)NC1=S
IC50: 5.14 µM (active)

CC(/C=C1\SC(=S)N(CCCC(=O)Nc2ccc(C(=O)O)cc2)C1=O)=C\c1ccccc1
IC50: 17.2 µM (active)
